Assay results reported in US8580918B2, “Peptidic GLP-2 agonists” (Ferring B.V., priority 2009, dated 2013).
Like-named read-outs stand apart in the source and are kept apart here. Where a SMILES comes first, the peptide text is derived from it. [ ]: non-standard residue; d: D form. dPhe(4-Cl) = N[C@H](Cc1ccc(Cl)cc1)C(=O)O; Nle = CCCC[C@H](N)C(=O)O

Assay: Pharmacokinetics in rats after intravenous bolus injection (systemic clearance)
Type: in vivo
Conditions: rat, plasma, adult male Sprague-Dawley rats, i.v. bolus, read-out: CL (ml/kg/min) Average
Protocol: Pharmacokinetic (PK) parameters of illustrative agonists of the GLP-2 receptor were determined in adult male Sprague-Dawley rats post intravenous bolus injection of compounds at doses of 0.1-1.0 mg/kg. Three or four doubly cannulated animals per compound were dosed via jugular vein, blood samples were collected at several intervals via carotid artery, and plasma samples were prepared from whole blood using K2EDTA as anticoagulant. Subsequent bioanalysis of samples included compound extraction and plasma concentration determination using standard LC/MS/MS methods. Analyte concentration was calculated from internal standard normalized peak area and calibration curves.
For calculation of PK parameters the compound concentration-time curves were analyzed with the noncompartmental data analysis software package PK Solutions 2.0™ (Summit Research Services, Montrose Colo.). The systemic clearance per kg body weight (CL) was calculated as the dose per kg body weight divided by the AUC extrapolated to infinity based on trapezoid calculation (AUC∞). Values reported are the arithmetic mean and standard deviation from the number of animals used for each compound as indicated on Table 3.

[1] = 0.2 mg FB/kg, dose 0.20 mg FB/kg

clearance [1] | clearance (dose 0.18 mg FB/kg) | Compound
0.51 mL/kg/min | – | CCCC[C@H](NC(=O)[C@H](CCC(=O)O)NC(=O)[C@H](CC(=O)O)NC(=O)[C@H](CO)NC(=O)[C@H](Cc1ccccc1)NC(=O)[C@H](CO)NC(=O)CNC(=O)[C@H](CC(=O)O)NC(=O)CNC(=O)[C@@H](N)Cc1cnc[nH]1)C(=O)N[C@H](Cc1ccc(Cl)cc1)C(=O)N[C@H](C(=O)N[C@H](C(=O)N[C@@H](CC(C)C)C(=O)N[C@@H](CC(=O)O)C(=O)N[C@@H](CC(N)=O)C(=O)N[C@@H](CC(C)C)C(=O)N[C@@H](C)C(=O)N[C@@H](C)C(=O)N[C@@H](CCCNC(=N)N)C(=O)N[C@@H](CC(=O)O)C(=O)N[C@@H](Cc1ccccc1)C(=O)N[C@H](C(=O)N[C@@H](CC(N)=O)C(=O)N[C@@H](Cc1c[nH]c2ccccc12)C(=O)N[C@@H](CC(C)C)C(=O)N[C@H](C(=O)N[C@@H](CCC(N)=O)C(=O)N[C@H](C(=O)N[C@@H](CCCCN)C(N)=O)[C@@H](C)O)[C@@H](C)CC)[C@@H](C)CC)[C@@H](C)CC)[C@@H](C)O [Compound 29, [Gly2,Nle10,D-Cpa11] hGLP-2 (1-30)-NH2] (H-HGDGSFSDE[Nle][dPhe(4-Cl)]TILDNLAARDFINWLIQTK-NH2)
1.2 mL/kg/min | – | CCCC[C@H](NC(=O)[C@H](CCC(=O)O)NC(=O)[C@H](CC(=O)O)NC(=O)[C@H](CO)NC(=O)[C@H](Cc1ccccc1)NC(=O)[C@H](CO)NC(=O)CNC(=O)[C@H](CC(=O)O)NC(=O)CNC(=O)[C@@H](N)Cc1c[nH]cn1)C(=O)N[C@H](Cc1c[nH]c2ccccc12)C(=O)N[C@H](C(=O)N[C@H](C(=O)N[C@@H](CC(C)C)C(=O)N[C@@H](CC(=O)O)C(=O)N[C@@H](CC(N)=O)C(=O)N[C@@H](CC(C)C)C(=O)N[C@@H](C)C(=O)N[C@@H](C)C(=O)N[C@@H](CCCNC(=N)N)C(=O)N[C@@H](CC(=O)O)C(=O)N[C@@H](Cc1ccccc1)C(=O)N[C@H](C(=O)N[C@@H](CC(N)=O)C(=O)N[C@@H](Cc1c[nH]c2ccccc12)C(=O)N[C@@H](CC(C)C)C(=O)N[C@H](C(=O)N[C@@H](CCC(N)=O)C(=O)N[C@H](C(=O)N[C@@H](CCCCN)C(N)=O)[C@@H](C)O)[C@@H](C)CC)[C@@H](C)CC)[C@@H](C)CC)[C@@H](C)O [Compound 30, [Gly2,Nle10,D-Trp11] hGLP-2 (1-30)-NH2] (H-HGDGSFSDE[Nle][dW]TILDNLAARDFINWLIQTK-NH2)
– | 5.6 mL/kg/min | CCCC[C@H](NC(=O)[C@H](CCC(=O)O)NC(=O)[C@H](CC(=O)O)NC(=O)[C@H](CO)NC(=O)[C@H](Cc1ccccc1)NC(=O)[C@H](CO)NC(=O)CNC(=O)[C@H](CC(=O)O)NC(=O)CNC(=O)[C@@H](N)Cc1c[nH]cn1)C(=O)N[C@H](C(=O)N[C@H](C(=O)N[C@H](C(=O)N[C@@H](CC(C)C)C(=O)N[C@@H](CC(=O)O)C(=O)N[C@@H](CC(N)=O)C(=O)N[C@@H](CC(C)C)C(=O)N[C@@H](C)C(=O)N[C@@H](C)C(=O)N[C@@H](CCCNC(=N)N)C(=O)N[C@@H](CC(=O)O)C(=O)N[C@@H](Cc1ccccc1)C(=O)N[C@H](C(=O)N[C@@H](CC(N)=O)C(=O)N[C@@H](Cc1c[nH]c2ccccc12)C(=O)N[C@@H](CC(C)C)C(=O)N[C@H](C(=O)N[C@@H](CCC(N)=O)C(=O)N[C@H](C(=O)N[C@@H](CCCCN)C(N)=O)[C@@H](C)O)[C@@H](C)CC)[C@@H](C)CC)[C@@H](C)CC)[C@@H](C)O)[C@@H](C)CC [Compound 31, [Gly2,Nle10,Ile11] hGLP-2 (1-30)-NH2] (H-HGDGSFSDE[Nle]ITILDNLAARDFINWLIQTK-NH2)
